The test concerns UC11-MG human astrocytoma cells. Nature of the test: D-aspartate (excitotoxin) release by hypo-osmotically stressed astrocytoma cells. The class given is cell-based. The conditions noted are these: for IC50: Homo sapiens, UC11MG, hypo-osmotic stress, about 145 mOsm, AUC-based, read-out: IC50 value (suppression of excitotoxin / D-aspartate release by stressed astrocyte cells); for Comparative potency: relative to L-644,711 (100% = benchmark); for Fold potency versus L-644,711: inhibition of aspartate release, compared to L-644,711. From the text: The in vitro tests described in this example used UC11-MG human astrocytoma cells, obtained from the University of Cincinnati, and described in Liwnicz et al 1986 and Lomneth et al 1989. Cell culture reagents (including RPMI 1640, fetal bovine serum, trypsin, and gentamicin) were obtained from Gibco (Gaithersburg, Md.). Radiolabelled D-[2,3-^3 H]aspartate was obtained from Amersham Life Sciences (Buckinghamshire, England). ScintiVerse II scintillation fluid was obtained from Fisher Scientific (Pittsburgh, Pa.). All other chemicals were obtained from Sigma Chemical Co. (St. Louis, Mo.). Osmolarities of solutions were measured using the Advance DigiMatic Osmometer Model 3D II (Advanced Instruments Inc., Mass.).
The UC11-MG astrocytoma cells were cultured in 75 ml vented flasks at 37° C. inside a humidified incubator in 5% CO2 /95% air. The cells were grown in RPMI Medium 1640 supplemented with 10% fetal bovine serum and […] gentamicin. At approximately 90% confluence, the cells were detached and suspended using a 0.0625% trypsin solution in Buffer A (137 mM NaCl, 5.37 mM KCl, 5.55 mM glucose, 4.17 mM NaHCO3, and 0.54 mM EDTA disodium salt, pH 7.4). The cells were then plated onto 6-well tissue culture plates at a seeding ratio of 4 plates per flask and 4 ml of cell-media suspension per well. The plated cells were used in experiments the next day at approximately 90% confluence. Plates that appeared to be more than 95% confluent were not used, because higher levels of confluence led to uncontrollable differentials in exposure of the cells to culture media and labelled aspartate. All tests were performed in triplicate. All media collections were done at 5 minute intervals, using pipettes, and were followed by promptly loading fresh buffer into each well before any drying occurred. All buffer samples collected in this manner were loaded into scintillation vials, mixed with 5 ml scintillation fluid, and counted for 1 minute in a scintillation counter (Beckman LS8000, Fullerton, Calif.).
Prior to D-aspartate exposure, the wells were washed three times under sterile conditions with 3 ml of 37° C. Buffer B (122 mM NaCl, 3.3 mM KCl, 1.2 mM CaCl2, 0.4 mM MgSO4, 1.2 mM KH2 PO4, 25 mM Hepes, 10 mM glucose, pH 7.4).
The cells were then loaded with 0.5 μCi/ml of D-aspartate, and incubated at 37° C. for 30 min. Cells were then washed four times with Buffer B, and the last washing fluid was left on the cells. The plates were then placed on an orbital shaker and maintained at 37° C.
Baseline aspartate release levels (prior to drug treatment) were determined by incubating the cells with normal Buffer B (285 mOsm) for 15 minutes, while buffer was collected every 5 minutes.
After the buffer was collected from a well at the 15 minute mark, the next set of normal Buffer B added to that well contained a test compound at a known concentration; each compound was tested over a range of concentrations. Cells were then incubated for two 5 minute intervals with solutions of test compounds in normal Buffer B. In some tests which used buffers containing relatively high concentrations of a test drug with limited solubility in water, DMSO was added to the mixture to increase the solubility of the compound in water.
Beginning at the 25-minute mark, the cells were stimulated to begin releasing aspartate by loading a well with hypo-osmotic buffer, prepared by diluting Buffer B with an equal volume of distilled and deionized H2 O, resulting in an osmolarity of about 145 mOsm. This hypo-osmoticsolution caused the cells to begin taking in excess water, to try to reestablish the normal osmotic gradients that exist across the cell membranes. The water-induced swelling and stress then began to induce release of aspartate by the cells, and the amount of aspartate released by the swollen astrocyte cells was measured by removing the buffer every 5 minutes and testing it in a scintillation counter.

For `CCC[C@]12CCC(=O)C=C1c1c(cc(OCC(=O)NCC(OC)OC)c(Cl)c1Cl)C2` [GERI-AmE1, R(+)-N-[2,2-(dimethoxy)-ethyl][(5,6-dichloro-2,3,9,9a-tetrahydro-3-oxo-9a-propyl-1H-fluoren-7-yl)oxy]acetamide], the IC50 came to 19.4 µM and the Comparative potency is 1,358%.
For `CCC[C@]12CCC(=O)C=C1c1c(cc(OCC(=O)NCc3ccccc3)c(Cl)c1Cl)C2` [GERI-AmE3, R(+)-N-benzyl-[(5,6-dichloro-2,3,9,9a-tetrahydro-3-oxo-9a-propyl-1H-fluoren-7-yl)oxy]acetamide], in that order: 31.9 µM and 826%.
The like results for `CCC[C@]12CCC(=O)C=C1c1c(cc(OCC(=O)NCc3ccccn3)c(Cl)c1Cl)C2` [GERI-AmE4, R(+)-N-[(2-pyridylmethyl][5,6-dichloro-2,3,9,9a-tetrahydro-3-oxo-9a-propyl-1H-fluoren-7-yl)oxy]acetamide] were, in that order, 11.6 µM and 2,272%.
On to `CCC[C@]12CCC(=O)C=C1c1c(cc(OCC(=O)NCCCn3ccnc3)c(Cl)c1Cl)C2` [GERI-AmE5, R(+)-N-[3-(1-imidazolyl)-propyl][(5,6-dichloro-2,3,9,9a-tetrahydro-3-oxo-9a-propyl-1H-fluoren-7-yl)oxy]acetamide], for which the IC50 was 39.8 µM, the “Fold potency versus L-644,711” value is reported as about 7 fold and the Comparative potency is listed as 662%.
In the case of `CCC[C@]12CCC(=O)C=C1c1c(cc(OCC(CO)(CO)CO)c(Cl)c1Cl)C2` [GERI-E1, R-(+)-5,6-dichloro-7-[3-hydroxy-2,2-bis-(hydroxymethyl)propyloxy]-9a-propyl-2,3,9,9a-tetrahydro-1H-fluoren-3-one], the IC50 turned out to be 29.5 µM and the Comparative potency came to 893%.
For `CCC[C@]12CCC(=O)C=C1c1c(cc(OCc3ccccc3C(=O)O)c(Cl)c1Cl)C2` [GERI-E3, Sodium R(+)-2-[(5,6-dichloro-2 3,9,9a-tetrahydro-3-oxo-9a-propyl-1H-fluoren-7-yl)oxymethyl]benzoate], in that order: 7.9 µM and 3,335%.
Take `CCC[C@]12CCC(=O)C=C1c1c(cc(OCc3cccc(C(=O)O)c3)c(Cl)c1Cl)C2` [GERI-E4, Sodium R(+)-3-[(5,6-dichloro-2,3 9,9a-tetrahydro-3-oxo-9a-propyl-1H-fluoren-7-yl)oxymethyl]benzoate]: the IC50 was found to be 7.8 µM, the “Fold potency versus L-644,711” value is reported as about 34 fold and the Comparative potency was 3,378%.
Consider `CCC[C@]12CCC(=O)C=C1c1c(cc(OCc3ccc(C(=O)O)cc3)c(Cl)c1Cl)C2` [GERI-E5, Sodium R(+)-4-[(5,6-dichloro-2,3,9,9a-tetrahydro-3-oxo-9a-propyl-1H-fluoren-7-yl)oxymethyl]benzoate], for which the IC50 was determined as 8 µM and the Comparative potency was 3,294%.
The like results for `CCC[C@]12CCC(=O)C=C1c1c(cc(OCOC(C)=O)c(Cl)c1Cl)C2` [GERI-E13, R-(+)-7-(acetoxymethoxy)-5,6-dichloro-9a-propyl-2,3,9,9a-tetrahydro-1H-fluoren-3-one] were, in that order, 19.2 µM and 1,372%.
For the compound `CCC[C@]12CCC(=O)C=C1c1c(cc(OC(C)=O)c(Cl)c1Cl)C2` [GERI-Est1, R-(+)-7-acetoxy-5,6-dichloro-9a-propyl-2,3,9,9a-tetrahydro-1H-fluoren-3-one], the IC50 stood at 13.9 µM and the Comparative potency is on record as 1,896%.
Turning to `CCC[C@]12CCC(=O)C=C1c1c(cc(OCC(=O)O)c(Cl)c1Cl)C2` [L-644,711, R(+)-[(5,6-dichloro-2,3,9,9a-tetrahydro-3-oxo-9a-propyl-1H-fluoren-7-yl)oxy]acetic acid, reference compound], the IC50 turned out to be 264 µM.

Values taken from patent US6251898A, “Medical use of fluorenone derivatives for treating and preventing brain and spinal injury” (Questcor Pharmaceuticals, Inc., priority 1999, dated 2001).
